Laboratory results published in patent US9409905B2, “Antibacterial compounds and methods for use” (PTC THERAPEUTICS, INC., priority 2011, dated 2016).
In brackets after ≈: the same amount, converted by molar mass. Read-outs that look alike come from different tables or passages of the source.

Assays:
[1] = test system: Escherichia coli (E. coli) BAS849; test: Antibacterial activity, microbroth dilution MIC (Table 1); type: cell-based
How it was run: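 Broth microdilution; endpoint = no macroscopic growth; value = lowest inhibiting concn, μg/mL.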

[2] = test system: Staphylococcus aureus (S. aureus) 29213; test: as above; type: cell-based
How it was run: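 Lowest concentration stopping macroscopically visible growth under test conditions, by broth microdilution, defines the MIC (μg/mL).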

E. coli 25922 = test: as above; type: cell-based, Escherichia coli
How it was run: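 Potency is reported as minimum inhibitory concentration in μg/mL, determined by broth microdilution as the lowest level of compound that stops growth visible to the eye.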

E. coli LZ3111 = test: Antibacterial activity, MIC, quinolone resistant strain (Table 2); type: cell-based; details: Escherichia coli, LZ3111, read-out: MIC LZ3111
How it was run: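 Lowest concentration giving no macroscopically visible growth was taken as the MIC (μg/mL) after microbroth dilution testing.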

[3] = test system: Acinetobacter baumannii (A. baumannii) BAA747; test: Antibacterial activity, MIC (Table 4); type: cell-based
How it was run: (§1)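 MIC (μg/mL) by microbroth dilution, taken as the lowest drug concentration preventing macroscopically visible growth. MXX strains are multi-drug resistant clinical isolates.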

[4] = test system: Klebsiella pneumoniae (K. pneumoniae) 35657; test: Antibacterial activity, MIC (Table 4); type: cell-based
How it was run: as §1

A. baumannii MXX2240 = test: Antibacterial activity, MIC, resistant strain (Table 4); type: cell-based; details: Acinetobacter baumannii
How it was run: as §1

K. pneumoniae MXX1232 = test: as above; type: cell-based; details: Klebsiella pneumoniae
How it was run: as §1

[5] = test system: Pseudomonas aeruginosa (P. aeruginosa) 27853; test: Antibacterial activity, MIC (Table 5); type: cell-based
How it was run: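 MIC in μg/mL from broth microdilution; endpoint is the lowest drug level giving no visible growth.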

[6] = microbroth dilution, super sensitive Gram-negative E. coli BAS849, read-out: MIC, BAS849
[7] = microbroth dilution, Gram-positive S. aureus 29213, read-out: MIC, 29213
[8] = Escherichia coli, microbroth dilution, control Gram-negative E. coli 25922 strain, read-out: MIC, 25922
[9] = A. baumannii BAA747, read-out: MIC, BAA747
[10] = K. pneumoniae 35657, read-out: MIC, 35657
[11] = MXX2240, resistant A. baumannii MMX2240, multi-drug resistant clinical isolate, read-out: MIC, MMX2240
[12] = MXX1232, resistant K. pneumoniae MMX1232, multi-drug resistant clinical isolate, read-out: MIC, MMX1232
[13] = P. aeruginosa 27853, read-out: MIC, 27853
[14] = Escherichia coli, 25922, read-out: MIC, 25922
[15] = MXX2240, read-out: MIC, MMX2240
[16] = MXX1232, read-out: MIC, MMX1232

SMILES | MIC [1, 6] | MIC [2, 7] | MIC (E. coli 25922; [8]) | MIC (E. coli LZ3111) | MIC [3, 9] | MIC [4, 10] | MIC (A. baumannii MXX2240; [11]) | MIC (K. pneumoniae MXX1232; [12]) | MIC [5, 13] | MIC ([1]; read-out: MIC, BAS849) | MIC ([2]; read-out: MIC, 29213) | MIC (E. coli 25922; [14]) | MIC ([3]; BAA747, read-out: MIC, BAA747) | MIC ([4]; read-out: MIC, 35657) | MIC (A. baumannii MXX2240; [15]) | MIC (K. pneumoniae MXX1232; [16]) | MIC ([5]; read-out: MIC, 27853)
CCc1c(-c2ccc3cc(CNC(C)CC)[nH]c3c2)[nH]c(=O)c(C(=O)O)c1O.Cl (stereo not drawn) [Cpd 443, 6-(2-((sec-butylamino)methyl)-1H-indol-6-yl)-5-ethyl-4-hydroxy-2-oxo-1,2-dihydropyridine-3-carboxylic acid hydrochloride] | 1 to 3.5 µg/mL | 3.5 to 12.5 µg/mL | 3.5 to 12.5 µg/mL | 3.5 to 12.5 µg/mL | 12.5 to 150 µg/mL | 3.5 to 12.5 µg/mL | 3.5 to 12.5 µg/mL | 12.5 to 150 µg/mL | 12.5 to 150 µg/mL | – | – | – | – | – | – | – | –
CCNCc1cc2ccc(-c3[nH]c(=O)c(C(=O)O)c(O)c3C)cc2[nH]1.Cl [Cpd 444, 6-(2-((ethylamino)methyl)-1H-indol-6-yl)-4-hydroxy-5-methyl-2-oxo-1,2-dihydropyridine-3-carboxylic acid hydrochloride] | 12.5 to 150 µg/mL | 12.5 to 150 µg/mL | 12.5 to 150 µg/mL | 12.5 to 150 µg/mL | 12.5 to 150 µg/mL | 12.5 to 150 µg/mL | 12.5 to 150 µg/mL | 12.5 to 150 µg/mL | 12.5 to 150 µg/mL | – | – | – | – | – | – | – | –
CCc1c(-c2ccc3c4c([nH]c3c2)CNCC4)[nH]c(=O)c(C(=O)O)c1O [Cpd 445, 5-ethyl-4-hydroxy-2-oxo-6-(2,3,4,9-tetrahydro-1H-pyrido[3,4-b]indol-7-yl)-1,2-dihydropyridine-3-carboxylic acid] | 3.5 to 12.5 µg/mL (≈ 9.9 to 35.4 µM) | 12.5 to 150 µg/mL (≈ 35.4 to 424 µM) | 12.5 to 150 µg/mL (≈ 35.4 to 424 µM) | 12.5 to 150 µg/mL (≈ 35.4 to 424 µM) | 12.5 to 150 µg/mL (≈ 35.4 to 424 µM) | 3.5 to 12.5 µg/mL (≈ 9.9 to 35.4 µM) | 12.5 to 150 µg/mL (≈ 35.4 to 424 µM) | 12.5 to 150 µg/mL (≈ 35.4 to 424 µM) | 12.5 to 150 µg/mL (≈ 35.4 to 424 µM) | – | – | – | – | – | – | – | –
CCc1c(-c2ccc3c4c([nH]c3c2)CN(C)CC4)[nH]c(=O)c(C(=O)O)c1O [Cpd 446, 5-ethyl-4-(hydroxy)-6-(2-methyl-2,3,4,9-tetrahydro-1H-pyrido[3,4-b]indol-7-yl)-2-oxo-1,2-dihydropyridine-3-carboxylic acid] | – | – | – | 1 to 3.5 µg/mL (≈ 2.72 to 9.53 µM) | – | – | – | – | – | < 1 µg/mL | 12.5 to 150 µg/mL (≈ 34 to 408 µM) | 1 to 3.5 µg/mL (≈ 2.72 to 9.53 µM) | 3.5 to 12.5 µg/mL (≈ 9.53 to 34 µM) | < 1 µg/mL | 12.5 to 150 µg/mL (≈ 34 to 408 µM) | 12.5 to 150 µg/mL (≈ 34 to 408 µM) | 3.5 to 12.5 µg/mL (≈ 9.53 to 34 µM)
CCc1c(-c2ccc3c4c([nH]c3c2)CN(CC)CC4)[nH]c(=O)c(C(=O)O)c1O [Cpd 447, 5-ethyl-6-(2-ethyl-2,3,4,9-tetrahydro-1H-pyrido[3,4-b]indol-7-yl)-4-hydroxy-2-oxo-1,2-dihydropyridine-3-carboxylic acid] | – | – | – | 3.5 to 12.5 µg/mL (≈ 9.18 to 32.8 µM) | – | – | – | – | – | < 1 µg/mL | 12.5 to 150 µg/mL (≈ 32.8 to 393 µM) | < 1 µg/mL | 3.5 to 12.5 µg/mL (≈ 9.18 to 32.8 µM) | < 1 µg/mL | 12.5 to 150 µg/mL (≈ 32.8 to 393 µM) | 12.5 to 150 µg/mL (≈ 32.8 to 393 µM) | 12.5 to 150 µg/mL (≈ 32.8 to 393 µM)
CCCN1CCc2c([nH]c3cc(-c4[nH]c(=O)c(C(=O)O)c(O)c4CC)ccc23)C1 [Cpd 448, 5-ethyl-4-hydroxy-2-oxo-6-(2-propyl-2,3,4,9-tetrahydro-1H-pyrido[3,4-b]indol-7-yl)-1,2-dihydropyridine-3-carboxylic acid] | – | – | – | 3.5 to 12.5 µg/mL (≈ 8.85 to 31.6 µM) | – | – | – | – | – | < 1 µg/mL | 12.5 to 150 µg/mL (≈ 31.6 to 379 µM) | < 1 µg/mL | 3.5 to 12.5 µg/mL (≈ 8.85 to 31.6 µM) | 1 to 3.5 µg/mL (≈ 2.53 to 8.85 µM) | 3.5 to 12.5 µg/mL (≈ 8.85 to 31.6 µM) | 12.5 to 150 µg/mL (≈ 31.6 to 379 µM) | 12.5 to 150 µg/mL (≈ 31.6 to 379 µM)
CCc1c(-c2ccc3c4c([nH]c3c2)CN(C(C)C)CC4)[nH]c(=O)c(C(=O)O)c1O [Cpd 449, 5-ethyl-4-hydroxy-6-(2-isopropyl-2,3,4,9-tetrahydro-1H-pyrido[3,4-b]indol-7-yl)-2-oxo-1,2-dihydropyridine-3-carboxylic acid] | < 1 µg/mL | 12.5 to 150 µg/mL (≈ 31.6 to 379 µM) | < 1 µg/mL | 3.5 to 12.5 µg/mL (≈ 8.85 to 31.6 µM) | 3.5 to 12.5 µg/mL (≈ 8.85 to 31.6 µM) | < 1 µg/mL | 3.5 to 12.5 µg/mL (≈ 8.85 to 31.6 µM) | 12.5 to 150 µg/mL (≈ 31.6 to 379 µM) | 12.5 to 150 µg/mL (≈ 31.6 to 379 µM) | – | – | – | – | – | – | – | –
CCc1c(-c2ccc3c4c([nH]c3c2)CCNC4)[nH]c(=O)c(C(=O)O)c1O [Cpd 450, 5-ethyl-4-hydroxy-2-oxo-6-(2,3,4,5-tetrahydro-1H-pyrido[4,3-b]indol-7-yl)-1,2-dihydropyridine-3-carboxylic acid] | 3.5 to 12.5 µg/mL (≈ 9.9 to 35.4 µM) | 12.5 to 150 µg/mL (≈ 35.4 to 424 µM) | 12.5 to 150 µg/mL (≈ 35.4 to 424 µM) | 12.5 to 150 µg/mL (≈ 35.4 to 424 µM) | 12.5 to 150 µg/mL (≈ 35.4 to 424 µM) | 3.5 to 12.5 µg/mL (≈ 9.9 to 35.4 µM) | 12.5 to 150 µg/mL (≈ 35.4 to 424 µM) | 12.5 to 150 µg/mL (≈ 35.4 to 424 µM) | 12.5 to 150 µg/mL (≈ 35.4 to 424 µM) | – | – | – | – | – | – | – | –
CCc1c(-c2ccc3c4c([nH]c3c2)CCN(C)C4)[nH]c(=O)c(C(=O)O)c1O [Cpd 451, 5-ethyl-4-hydroxy-6-(2-methyl-2,3,4,5-tetrahydro-1H-pyrido[4,3-b]indol-7-yl)-2-oxo-1,2-dihydropyridine-3-carboxylic acid] | < 1 µg/mL | 12.5 to 150 µg/mL (≈ 34 to 408 µM) | < 1 µg/mL | 3.5 to 12.5 µg/mL (≈ 9.53 to 34 µM) | 3.5 to 12.5 µg/mL (≈ 9.53 to 34 µM) | < 1 µg/mL | 12.5 to 150 µg/mL (≈ 34 to 408 µM) | 12.5 to 150 µg/mL (≈ 34 to 408 µM) | 12.5 to 150 µg/mL (≈ 34 to 408 µM) | – | – | – | – | – | – | – | –
